The values below come from ChEMBL document CHEMBL4052619, “First example of peptides targeting the dimer interface of Leishmania infantum trypanothione reductase with potent in vitro antileishmanial activity” (Eur J Med Chem, 2017).

In data set [1] the test system is Leishmania infantum. In words: Drug localization in Leishmania infantum MCAN/ES/89/IPZ229/1/89 promastigotes flagellum after 4 hrs by fluorescence microscopic method. The class given is ADME. To be noted: in vivo.
Data set [2] has as its system Leishmania infantum. In words: Drug localization in Leishmania infantum MCAN/ES/89/IPZ229/1/89 promastigotes after 24 hrs by fluorescence microscopic method. Format: ADME. To be noted: in vivo.

On to `CCCCC(NC(=O)[C@H](CCCCN)NC(=O)C(CCCC)NC(=O)[C@H](CO)NC(=O)[C@@H](NC(=O)CNC(=O)[C@@H](NC(=O)[C@H](CO)NC(=O)[C@H](CCC(N)=O)NC(=O)[C@@H](NC(=O)[C@@H](NC(=O)[C@H](CCCCN)NC(=O)[C@@H]1CCCN1C(=O)COCCOCCNC(=S)Nc1ccc(-c2c3ccc(=O)cc-3oc3cc(O)ccc23)c(C(=O)O)c1)[C@@H](C)CC)[C@@H](C)CC)C(C)C)[C@@H](C)CC)C(=O)N[C@H](CCCNC(=N)N)NC(=O)[C@H](CCCNC(=N)N)NC(=O)[C@H](CCCNC(=N)N)NC(=O)[C@H](CCCNC(=N)N)NC(=O)[C@H](CCCNC(=N)N)NC(=O)[C@H](CCCNC(=N)N)NC(=O)[C@H](CCCNC(=N)N)NC(=O)[C@H](CCCNC(=N)N)NC(=O)[C@@H](N)CCCNC(=N)N` (some centres not stated), for which the Drug uptake result in data set [1] and in data set [2] was “Active” in each case.
